The values that follow come from patent publication USRE42700E1, “Induction of apoptosis in cancer cells” (Sanford-Burnham Medical Research Institute, priority 2001, dated 2011).

SMILES strings stand for the structures. Peptide text beside a SMILES is read from it. * marks the point of attachment. Cbz = O=C(OCc1ccccc1)*; CH2F = FC*

By melting point is commonly meant the temperature, or range, at which the solid turns liquid.

In one data set the target is RAR subtype α (Homo sapiens, UniProt P10276). The settings on record: cited from earlier work.
RAR subtype α, sequence (P10276 whole entry): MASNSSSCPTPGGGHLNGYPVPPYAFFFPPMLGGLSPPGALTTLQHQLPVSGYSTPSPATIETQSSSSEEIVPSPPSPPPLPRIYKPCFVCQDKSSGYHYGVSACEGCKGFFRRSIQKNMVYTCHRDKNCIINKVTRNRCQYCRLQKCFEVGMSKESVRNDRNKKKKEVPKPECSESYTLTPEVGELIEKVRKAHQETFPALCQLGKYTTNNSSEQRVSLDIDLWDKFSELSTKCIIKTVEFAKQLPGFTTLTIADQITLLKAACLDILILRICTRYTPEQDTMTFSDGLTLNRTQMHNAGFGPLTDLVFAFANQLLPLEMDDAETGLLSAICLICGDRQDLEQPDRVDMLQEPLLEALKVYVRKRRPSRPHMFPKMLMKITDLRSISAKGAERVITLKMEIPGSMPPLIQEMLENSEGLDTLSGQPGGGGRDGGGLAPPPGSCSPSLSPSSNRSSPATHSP
The test system of a further data set is cell line ALL-REH. The settings on record: ALL-REH cells; cited from earlier work.
For another data set, the target named is RARγ (Homo sapiens, UniProt P13631). The settings on record: 1 μM; cited from earlier work.
RARγ, sequence (P13631 whole entry, species assumed): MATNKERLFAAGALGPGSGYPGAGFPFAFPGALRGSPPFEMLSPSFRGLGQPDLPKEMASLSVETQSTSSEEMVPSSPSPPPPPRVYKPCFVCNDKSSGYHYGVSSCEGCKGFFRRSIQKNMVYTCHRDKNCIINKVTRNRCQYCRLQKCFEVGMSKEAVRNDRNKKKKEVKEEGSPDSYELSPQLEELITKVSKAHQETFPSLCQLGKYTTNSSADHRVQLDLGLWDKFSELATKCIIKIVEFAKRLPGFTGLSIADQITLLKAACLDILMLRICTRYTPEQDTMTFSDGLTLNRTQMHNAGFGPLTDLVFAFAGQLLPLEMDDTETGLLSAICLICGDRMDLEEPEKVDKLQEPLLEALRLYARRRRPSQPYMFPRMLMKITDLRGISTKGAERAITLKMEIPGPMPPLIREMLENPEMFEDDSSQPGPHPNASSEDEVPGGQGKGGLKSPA
In the next data set the test system is AML cells. In words: growth of AML cells in SCID mice. Type of data set: in vivo, mouse.
Data set [1] has as its system p38 and JNK kinases (HL-60R human leukemia cell line). The note with it: cited from earlier work.
For data set [2], the system named is ALL cells obtained from patients. The settings on record: background section; cited from earlier work.
Another data set concerns the target RARβ (Homo sapiens, UniProt P10826). The settings on record: 1 μM; cited from earlier work.
Data set [3] deals with human leukemia cell line HL-60R. The settings on record: cited from earlier work.
The test system of data set [4] is mouse mammary adenocarcinoma 16/C. In words: mouse mammary adenocarcinoma 16/C in syngeneic female C3H mice. On the procedure: The ability of 3-Cl-AHPC to inhibit the in vivo growth of breast carcinoma cells was tested using syngeneic mouse mammary and human breast adenocarcinoma SCID xenograft models.
For a further data set, the system named is cell line K562. The note with it: cited from earlier work.
A further data set relates to RXRs. The note with it: cited from earlier work.
Data set [5] deals with M07e or patient leukemia cells. The experiment in a line: effect of kinase inhibitors on 3-Cl-AHPC-mediated apoptosis. Type of data set: cell-based, human. The settings on record: at concentrations inhibiting p38 or ERK activation.
Description: After 3-Cl-AHPC treatment, cells were harvested, washed with PBS and resuspended at 1×10^6 cells/ml. Cell suspensions (50 μl) were stained with 5 ml of acridine orange solution (100 mg/ml) in PBS in the dark. Cells displaying fragmented DNA were detected using a fluorescent microscope. Apoptotic cells were also detected using a kit. Cells that incorporated fluorescein labeled deoxyuridine triphosphate were detected using flow cytometry.
Data set [6] has as its system ERK, p38 and JNK kinases in M07e and patient leukemic cells. The experiment in a line: activation of MAPK pathways (phospho-p38, phospho-ERK, phospho-JNK Western blots). Type of data set: cell-based, human. The note with it: 50 μM inhibitor. As to the method:
(§1) Western Blots: Western blots were performed according to the protocol of Sheikh, M. S., et al., (Oncogene, 9: 3407-3415 (1994)). Logarithmically growing cells were treated with 3-Cl-AHPC for various times and cells were harvested and lysed in Laemmli lysis buffer (0.5 M Tris-HCl, pH 6.8, 0.002M EDTA, 10% glycerol, 10% sodium dodecyl sulfate (SDS), and 5% β-mercaptoethanol). Protein lysates (50 μg/lane) were electrophoresed on 12% SDS-polyacrylamide gels and transferred to nitrocellulose membranes. Membranes were blocked with 5% nonfat dried milk in PBS/0.5% Tween 20 and then incubated with the appropriate antibodies. Horseradish peroxidase-conjugated rabbit anti-mouse IgG was used as the secondary antibody, and bands were developed using the Amersham ECL non-radioactive method.
On the technique in general: Immunoblotting shows a protein as a band on a membrane.

The next data set deals with Bcl-XL in leukemic cells. In words: Bcl-XL cleavage by Western blot. Type of data set: cell-based, human. The settings on record: 50 μM inhibitor with 1 μM 3-Cl-AHPC, 24 hours. As to the method: as §1
The test system of data set [7] is leukemic blasts from patients (AML or CML in blast crisis). The experiment in a line: apoptosis in primary cultures of patient leukemic blasts. Type of data set: cell-based, human. As to the method: (§2) Cell Growth: IL-3-transfected M07e cells have been described by Thacker, D. J., et al., Leukemia 8: 871-877 (1994). Cells were grown in RPMI supplemented with 5 percent heat-inactivated fetal bovine serum (FBS) and 25 μg/ml gentamycin in a […], 5% CO2, and 100% humidity environment. Leukemic cells were obtained from patients who met the criteria for the diagnosis of AML or CML in blast crisis (see Table 1). Studies were approved by the Wayne State University Institutional Review Board. Informed consent was obtained from all patients. Leukemic blasts from patients were isolated using Ficoll hypaque. Cells at the interface between plasma and red blood cells were diluted with sterile PBS, then layered over Ficoll hypaque (1.077 density), and the leukemic cells collected at the interface. The sample to be studied represented greater than 90% blasts. The patient leukemia samples were grown in RPMI medium supplemented with 10% FBS, gentamycin (25 μg/ml), IL-3 (20 ng/ml), SCF (25 ng/ml), GM-CSF (20 ng/ml) and G-CSF (20 ng/ml). Cell growth was assessed using a cell proliferation kit.
(§3) Apoptosis Quantification: Staining of apoptotic cells was performed as described by Gavreli, Y., et al., (J. Cell. Biol. 119: 493-501 (1992)) and Whitacre, C. M., et al., (Cancer Res. 55: 3697-3701 (1995)). After 3-Cl-AHPC treatment, cells were harvested, washed with PBS and resuspended at 1×10^6 cells/ml. Cell suspensions (50 μl) were stained with […] of acridine orange solution ([…]) in PBS in the dark. Cells displaying fragmented DNA were detected using a fluorescent microscope. Apoptotic cells were also detected using a kit. Cells that incorporated fluorescein labeled deoxyuridine triphosphate were detected using flow cytometry.

In data set [8] the test system is human acute megakaryocytic leukemia cell line M07e. The experiment in a line: M07e cell growth / proliferation. Type of data set: cell-based. The settings on record: varying concentrations over time. On the procedure: as §2
The test system of data set [9] is Human Breast Cancer Cells. In words: apoptosis induction / cell death in breast cancer cells (all lines). In kind it is cell-based. The note with it: 10 μM.
Data set [10] concerns human acute megakaryocytic leukemia cell line M07e. In words: M07e apoptosis quantification. In kind it is cell-based. On the procedure:
as §3

Data set [11] has as its system acute promyelocytic leukemia (APL). The note with it: cited from earlier work.
Setting [12] is: total dose 133 mg/kg, days 1, 2, 5-9.
Setting [13] is: total dose 150 mg/kg, days 1, 2, 7-9.

RARβ, sequence (P10826 whole entry, species assumed): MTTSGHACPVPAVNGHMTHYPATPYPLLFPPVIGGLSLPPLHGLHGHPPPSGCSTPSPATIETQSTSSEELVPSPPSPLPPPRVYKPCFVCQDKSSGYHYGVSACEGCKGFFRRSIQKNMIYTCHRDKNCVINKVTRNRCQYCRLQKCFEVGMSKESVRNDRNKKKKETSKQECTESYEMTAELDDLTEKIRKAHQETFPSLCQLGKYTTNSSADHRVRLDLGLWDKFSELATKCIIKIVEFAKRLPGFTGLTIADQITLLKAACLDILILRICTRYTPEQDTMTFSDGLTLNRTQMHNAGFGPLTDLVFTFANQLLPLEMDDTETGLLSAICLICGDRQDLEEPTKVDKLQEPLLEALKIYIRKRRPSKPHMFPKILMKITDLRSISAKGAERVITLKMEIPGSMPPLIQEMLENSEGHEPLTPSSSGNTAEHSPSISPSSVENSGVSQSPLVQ

For the molecule `O=C(O)c1ccc2cc(-c3ccc(O)c(C45CC6CC(CC(C6)C4)C5)c3)ccc2c1` [AHPN, 6-[3-(1-adamantyl)-4-hydroxyphenyl]-2-naphthalenecarboxylic acid], the “binding and transactivation of RAR subtype α” value at RAR subtype α is “extremely poor binder and transactivator”. For the same molecule, the “caspase 3 activity” value in the data set on cell line ALL-REH is recorded as “stimulation of caspase 3 activity”. Also, the “binding and transactivation of RARγ” value on RARγ is “binds and transactivates”. Also, the “treated mice tumor-free more than 150 days (considered cured)” value in the data set with AML cells (five treated mice) is given as “one out of the five”. In the data set on AML cells (treated SCID mice), this molecule displayed a Tumor growth inhibition of 85.7%, a growth delay of 21 days and a log cell kill of 2.1. Moreover, the “p38 and JNK activation” value in data set [1] (HL-60R human leukemia cell line) was “p38 and JNK activation”. Further, the “time to activation of the p38 and JNK kinases” value in data set [1] was not above 1 h. For the same molecule, the “apoptosis of ALL cells obtained from patients” value in data set [2] was “induced apoptosis”. For the same molecule, at RARβ, the “binding and transactivation of RARβ” value was “binds and transactivates”. Further, in [3], the “apoptosis of HL-60R cells (lack functional RARs)” value is “results in apoptosis”. In data set [4] (total dose 99 mg/kg, days 1-9), the “% body wt. loss” value was −4%, the Drug deaths is given as 0/5 and the T/C % is recorded as 47%. In addition, in data set [4] (setting [12]), the “% body wt. loss” value is −11%, the Drug deaths was 0/5, the Log cell kill came to 0.49 and the T/C % is given as 39%. Further, in [4] (setting [13]), the “% body wt. loss” value was −21%, the Drug deaths is 1/5, the Log cell kill worked out at 0.63 and the T/C % is 30%. For the same molecule, in the data set with cell line K562, the “apoptosis of K562 cells (resistant to tRA)” value was “results in apoptosis”. The “binding to the RXRs” value in the data set on RXRs is recorded as “does not bind”.

Consider `O=C(O)/C=C/c1ccc(-c2ccc(O)c(C34CC5CC(CC(C5)C3)C4)c2)cc1Cl` [Example 2, (E)-4-[3-(1-Adamantyl)-4-hydroxyphenyl]-2-chlorocinnamic acid], for which the melting point lay in the range of 276 to 278 °C.

`Cc1cc(/C=C/C(=O)O)ccc1-c1ccc(O)c(C23CC4CC(CC(C4)C2)C3)c1` [Example 3, (E)-4-[3-(1-Adamantyl)-4-hydroxyphenyl]-3-methylcinnamic acid]: the melting point is 232 to 234 °C.

On to `Cc1cc(/C=C/C(=O)O)cc(C)c1-c1ccc(O)c(C23CC4CC(CC(C4)C2)C3)c1` [Example 4, (E)-4-[3-(1-Adamantyl)-4-hydroxyphenyl]-3,5-dimethylcinnamic acid], for which the melting point lay in the range of 127 to 129 °C.

For the molecule `COc1cccc(-c2cc(=O)c3ccccc3o2)c1N` [PD98059], the “effect on 3-Cl-AHPC-mediated apoptosis” value in data set [5] was “did not inhibit or enhance 3-Cl-AHPC-mediated apoptosis”.

For `COC(=O)C[C@H](NC(=O)[C@H](C)NC(=O)[C@@H](NC(=O)OCc1ccccc1)C(C)C)C(=O)CF` [ZVAD-fmk] (Cbz-Val-Ala-Asp(OMe)-CH2F), in data set [6], the “effect on 3-Cl-AHPC activation of JNK” value is “not inhibited”; the “effect on 3-Cl-AHPC activation of p38 and ERK” value is “prevent their activation by 3-Cl-AHPC”. In addition, the “effect on 3-Cl-AHPC-mediated Bcl-XL cleavage” value in the data set on Bcl-XL in leukemic cells is “inhibited Bcl-XL cleavage”.

Regarding `CC1=C(/C=C/C(C)=C/C=C/C(C)=C/C(=O)O)C(C)(C)CCC1` [tRA, trans-retinoic acid, reference compound], in data set [7] (1 μM, 11 primary cultures), the induction of apoptosis result was “did not induce apoptosis”. The “proliferation and apoptosis of primary human AML cultures (FIG. 13)” value in [7] (non-APL AML samples) is “had no effect”. Also, the inhibition of proliferation entry in [8] was “did not significantly inhibit M07e proliferation”; in data set [10], “did not significantly inhibit M07e proliferation (FIG. 2C) or induce apoptosis”. The “killing of breast carcinoma cells” value in data set [9] is “did not kill the cells”. Further, the “patients achieving a complete remission” value in data set [11] is listed as 90%.
